Reference: patent publication US20220017541A1, “INHIBITORS OF ARGINASE” (Black Belt Tx Ltd, priority 2018, published 2022)

Key:
Format in all cases: biochemical
recombinant human ARG1 = biological target: T1, recombinant human ARG1 (Homo sapiens, UniProt P05089); assay: Arginase enzymatic assay in vitro, recombinant human ARG1 (colorimetric urea detection); conditions: recombinant human arginase 1; read-out: IC50 Inh rhARG1
T1 construct: purchased R&D System 5868-AR-010
T1 sequence (P05089 1-322): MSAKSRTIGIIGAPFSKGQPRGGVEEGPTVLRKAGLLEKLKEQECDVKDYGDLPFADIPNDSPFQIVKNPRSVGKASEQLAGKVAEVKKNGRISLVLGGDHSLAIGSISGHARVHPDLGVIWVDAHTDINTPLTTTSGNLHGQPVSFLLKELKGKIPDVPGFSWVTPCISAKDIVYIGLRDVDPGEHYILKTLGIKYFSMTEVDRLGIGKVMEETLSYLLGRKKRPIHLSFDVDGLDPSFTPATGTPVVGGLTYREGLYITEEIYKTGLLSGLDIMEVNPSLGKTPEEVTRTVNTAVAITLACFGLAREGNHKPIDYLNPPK
Excerpt: (§1) Arginase catalyzes the hydrolysis of L-arginine into L-ornithine and urea. Urea amount produced by this reaction can be detected using a colorimetric assay and used as an indirect measurement of arginase activity. An adapted protocol from (Baggio, R., et al., J Pharmacol Exp Ther, 1999. 290(3): p. 1409-16) was used for the testing the ability of exemplary compounds of the invention to inhibit arginase enzymes from a variety of sources including recombinant human ARG1 and 2, lysates of human red blood cells (RBC) and intact murine macrophages, as described below.
(§2) Compounds of the invention were prepared from powder as 10 mM stock solutions in DMSO and stored in presence of N2 neutral atmosphere at −80° C. For IC50 determination and just before the assay, exemplary compounds were successively diluted to get the following concentrations: 210, 70, 21, 7, 2.1, 0.7, 0.21, 0.07, 0.021, 0.007, 0.0021 and 0.0007 μM (i.e., final concentrations in the wells of 30, 10, 3, 1, 0.3, 0.1, 0.03, 0.01, 0.003, 0.001, 0.0003, 0.0001 μM).
(§3) Assays were run in clear flat bottom 96-well plates (Nunclon, Cat. No. #167008) adding in each well the following solutions in this order: (1) 10 μl of Tris-HCl solution supplemented with 0.1% bovine serum albumin (BSA) containing 1.563 μg/ml recombinant human ARG1 (R&D System, Cat. No. #5868-AR-010), (2) 30 μl of Tris-HCl buffer containing 10 mM MnCl2 and (3) 10 μL of a pre-dilution of each test article or DMSO (vehicle). Compounds were allowed to interact with the enzyme-cofactor complex pre-incubating the plate at 37° C. for 30 min. To start the reaction, 20 μl of 50 mM L-arginine (Sigma Aldrich Cat. #A5006-100G) were added to each well in exception of the blank reaction (see below). All reactions were allowed to happen for 1 h at 37° C. To detect the urea production, reactions were stopped by adding 200 μl of a mixture of reagent A (4 mM o-phthalaldehyde in 50 mM Boric Acid, 1 M Sulfuric Acid, 0.03% Brij-35 (w/v)) and reagent B (4 mM N-(1-naphthyl)ethylenediamine in 50 mM Boric Acid, 1 M Sulfuric Acid, 0.03% Brij-35 (w/v)) in equal proportion. Color product was developed for 1 h at room temperature (RT) protected from light and then absorbance at 520 nm was measured using a Multifunction Microplate Reader (Synergy 4, Bioteck). Blank reactions were carried out by adding the L-arginine substrate only after the addition of mixture A-B. All reactions were carried out in duplicates.
(§4) The inhibition of urea production was calculated subtracting the absorbance from the blank reaction (zero enzymatic urea production) to the absorbance from all reactions and it was expressed as the percentage of the absorbance from the reaction containing the test article with respect to the absorbance from vehicle reaction (maximum of urea production).

[1] = biological target: T2, native ARG1 enzyme in lysates of RBC (Homo sapiens, UniProt P05089); assay: Arginase enzymatic assay in RBC lysates from healthy donors; conditions: human red blood cell lysates; read-out: IC50 Inh RBC
T2 construct: native ARG1 enzyme in lysates of RBC; from tissue; host or cells: human red blood cell lysates from healthy donors
T2 sequence (P05089 1-322): T1 sequence (P05089 1-322)
Excerpt: as §1, §2, §3, §4
For testing inhibitory activity over RBC lysates from healthy donors, 10 μl of Tris-HCl solution supplemented with 0.1% BSA containing 160 μg RBC lysates per well was used instead.

recombinant human ARG2 = biological target: T3, recombinant human ARG2 (Homo sapiens, UniProt P78540); assay: Arginase enzymatic assay in vitro, recombinant human ARG2 (colorimetric urea detection); conditions: recombinant human arginase 2; read-out: IC50 Inh rhARG2
T3 construct: purchased BPS Bioscience 71659
T3 sequence (P78540 23-354): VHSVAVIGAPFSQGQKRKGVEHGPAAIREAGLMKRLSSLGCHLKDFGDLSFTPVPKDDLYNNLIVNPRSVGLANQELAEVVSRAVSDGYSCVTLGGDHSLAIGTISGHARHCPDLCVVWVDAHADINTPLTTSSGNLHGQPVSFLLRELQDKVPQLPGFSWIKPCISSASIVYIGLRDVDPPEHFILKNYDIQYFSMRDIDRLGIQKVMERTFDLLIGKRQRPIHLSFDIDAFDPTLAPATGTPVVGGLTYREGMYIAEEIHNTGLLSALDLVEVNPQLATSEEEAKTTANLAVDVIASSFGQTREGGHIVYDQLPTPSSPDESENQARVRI
Excerpt: as §1, §2, §3, §4
For testing inhibitory activity over recombinant human arginase II, 10 μl of Tris-HCl solution supplemented with 0.1% BSA containing 1.5 μg/ml recombinant human ARG2 (BPS Bioscience, Cat. No. #71659) was used instead of ARG1.

Row | IC50 (recombinant human ARG1) [nM] | IC50 [1] [nM] | IC50 (recombinant human ARG2) [nM] | SMILES
1 | > 5000 | > 5000 | > 5000 | NC(CCCCB(O)O)(C(=O)O)C1CCN(C2CCCc3ccccc32)CC1 (single isomer, unassigned) [Compound 6, 2-amino-6-borono-2-(1-(1,2,3,4-tetrahydronaphthalen-1-yl)piperidin-4-yl)hexanoic acid]
2 | < 500 | < 500 | < 500 | CC(c1ccccc1)N1CCC(C(N)(CCCCB(O)O)C(=O)O)CC1 (single isomer, unassigned) [Compound 10, 2-amino-6-borono-2-(1-(1-phenylethyl)piperidin-4-yl)hexanoic acid]
3 | > 5000 | > 5000 | > 5000 | CC(c1ccccc1)N1CCC(C(N)(CCCCB(O)O)C(=O)O)CC1 (single isomer, unassigned) [Compound 11, 2-amino-6-borono-2-(1-(1-phenylethyl)piperidin-4-yl)hexanoic acid]
4 | < 500 | < 500 | < 500 | NC(CCCCB(O)O)(C(=O)O)C1CCN(C2CCCc3ccccc32)CC1 (single isomer, unassigned) [Compound 5, 2-amino-6-borono-2-(1-(1,2,3,4-tetrahydronaphthalen-1-yl)piperidin-4-yl)hexanoic acid]
5 | < 500 | < 500 | 500 to 5000 | CC(c1ccccc1)N1CCC(C(N)(CCCCB(O)O)C(=O)O)CC1 (stereo not drawn) [Compound 9, 2-amino-6-borono-2-(1-(1-phenylethyl)piperidin-4-yl)hexanoic acid]
6 | < 500 | < 500 | 500 to 5000 | NC(CCCCB(O)O)(C(=O)O)C1CCN(C2CCCCc3ccccc32)CC1 (single isomer, unassigned) [Compound 84, 2-amino-6-borono-2-(1-(6,7,8,9-tetrahydro-5H-benzo[7]annulen-5-yl)piperidin-4-yl)hexanoic acid]
7 | < 500 | < 500 | < 500 | NC(CCCCB(O)O)(C(=O)O)C1CCN(C2CCc3cc(Cl)ccc32)CC1 (single isomer, unassigned) [Compound 14, 2-amino-6-borono-2-[1-(5-chloroindan-1-yl)-4-piperidyl]hexanoic acid]
8 | < 500 | < 500 | 500 to 5000 | NC(CCCCB(O)O)(C(=O)O)C1CCN(C2CCc3ccccc32)CC1 (stereo not drawn) [Compound 1, 2-amino-6-borono-2-(1-(2,3-dihydro-1H-inden-1-yl)piperidin-4-yl)hexanoic acid]
9 | > 5000 | > 5000 | > 5000 | NC(CCCCB(O)O)(C(=O)O)C1CCN(C2CCc3ccccc32)CC1 (single isomer, unassigned) [Compound 3, 2-amino-6-borono-2-(1-(2,3-dihydro-1H-inden-1-yl)piperidin-4-yl)hexanoic acid]
10 | < 500 | < 500 | < 500 | NC(CCCCB(O)O)(C(=O)O)C1CCN(C2CCCc3ccc(F)cc32)CC1 (single isomer, unassigned) [Compound 83, 2-amino-6-borono-2-(1-(7-fluoro-1,2,3,4-tetrahydronaphthalen-1-yl)piperidin-4-yl)hexanoic acid]
11 | < 500 | < 500 | 500 to 5000 | NC(CCCCB(O)O)(C(=O)O)C1CCN(C2CCCc3ccccc32)CC1 (single isomer, unassigned) [Compound 4, 2-amino-6-borono-2-(1-(1,2,3,4-tetrahydronaphthalen-1-yl)piperidin-4-yl)hexanoic acid]
12 | < 500 | < 500 | < 500 | NC(CCCCB(O)O)(C(=O)O)C1CCN(C2CCc3ccccc32)CC1 (single isomer, unassigned) [Compound 2, 2-amino-6-borono-2-(1-(2,3-dihydro-1H-inden-1-yl)piperidin-4-yl)hexanoic acid]
13 | < 500 | < 500 | < 500 | NC(CCCCB(O)O)(C(=O)O)C1CCN(C2CCCc3cc(Cl)ccc32)CC1 (single isomer, unassigned) [Compound 17, 2-amino-6-borono-2-(1-(6-chloro-1,2,3,4-tetrahydronaphthalen-1-yl)piperidin-4-yl)hexanoic acid]
14 | < 500 | < 500 | < 500 | NC(CCCCB(O)O)(C(=O)O)C1CCN(C2CCc3cc(C(F)(F)F)ccc32)CC1 (single isomer, unassigned) [Compound 85, 2-amino-6-borono-2-[1-[5-(trifluoromethyl)indan-1-yl]-4-piperidyl]hexanoic acid]
15 | < 500 | < 500 | < 500 | CNC(CCCCB(O)O)(C(=O)O)C1CCN(C2CCCc3ccccc32)CC1 (single isomer, unassigned) [Compound 79, 6-borono-2-(methylamino)-2-(1-(1,2,3,4-tetrahydronaphthalen-1-yl)piperidin-4-yl)hexanoic acid]
16 | < 500 | < 500 | 500 to 5000 | CC1(C)OB(CCCCC(N)(C(=O)O)C2CCN(C3CCCc4ccccc43)CC2)OC1(C)C (stereo not drawn) [Compound 77, 2-amino-2-(1-(1,2,3,4-tetrahydronaphthalen-1-yl)piperidin-4-yl)-6-(4,4,5,5-tetramethyl-1,3,2-dioxaborolan-2-yl)hexanoic acid]
